In ChEMBL document CHEMBL1135585, “Mixed steroidal 1,2,4,5-tetraoxanes: antimalarial and antimycobacterial activity” (J Med Chem, 2002):
pIC50: −log10 of the molar value.

What was measured:
Plasmodium falciparum [1] = experiment: microbe, parasite or virus in culture
Description: (§1) In vitro inhibitory activity against chloroquine-sensitive Plasmodium falciparum African D6

Plasmodium falciparum [2] = experiment: microbe, parasite or virus in culture; remark: listed apart in the source
Description: (§2) In vitro inhibitory activity against chloroquine-resistant Plasmodium falciparum W2 Indochina

Plasmodium falciparum [3] = test system: Plasmodium falciparum
Description: as §2

Plasmodium falciparum [4] = test system: Plasmodium falciparum; remark: listed apart in the source
Description: as §1

| Compound | pIC50 (Plasmodium falciparum [1]) | pIC50 (Plasmodium falciparum [2]) | pIC50 (Plasmodium falciparum [3]) | pIC50 (Plasmodium falciparum [4]) |
| --- | --- | --- | --- | --- |
| CC(=O)O[C@H]1C[C@H]2[C@@H]([C@H](OC(C)=O)C[C@@H]3CC4(CC[C@@]32C)OOC2(CCCCC2C)OO4)[C@@H]2CCC(C(C)CCC(=O)O)[C@@]12C (stereo partly drawn) | 7.17 | 7.43 |  |  |
| OC(c1cc(C(F)(F)F)nc2c(C(F)(F)F)cccc12)C1CCCCN1 (stereo not drawn) [MEFLOQUINE] | 7.55 |  |  |  |
| CC(=O)O[C@H]1C[C@H]2[C@@H]([C@H](OC(C)=O)C[C@@H]3CC4(CC[C@@]32C)OOC2(CCCCC2C)OO4)[C@@H]2CCC(C(C)CCC(N)=O)[C@@]12C (stereo partly drawn) | 7.76 | 7.95 |  |  |
| CCC1CCC2(CC1)OOC1(CC[C@@]3(C)[C@H](C[C@@H](OC(C)=O)[C@@H]4[C@@H]3C[C@H](OC(C)=O)[C@]3(C)C(C(C)CCC(=O)O)CC[C@@H]43)C1)OO2 (stereo in doubt; 4i) | 8.24 | 8.14 |  |  |
| CC(=O)O[C@H]1C[C@H]2[C@@H]([C@H](OC(C)=O)C[C@@H]3CC4(CC[C@@]32C)OOC2(CCC(C)CC2)OO4)[C@@H]2CCC(C(C)CCC(N)=O)[C@@]12C (stereo in doubt; 16) |  |  | 7.85 | 7.70 |
| COC(=O)CCC(C)C1CC[C@H]2[C@@H]3[C@H](OC(C)=O)C[C@@H]4CC5(CC[C@]4(C)[C@H]3C[C@H](OC(C)=O)[C@]12C)OOC1(CCCCC1C)OO5 (stereo partly drawn) | 7.57 | 7.81 |  |  |
| CCCNC(=O)CCC(C)C1CC[C@H]2[C@@H]3[C@H](OC(C)=O)C[C@@H]4CC5(CC[C@]4(C)[C@H]3C[C@H](OC(C)=O)[C@]12C)OOC1(CCC(C)CC1)OO5 (stereo in doubt; 19) |  |  | 7.08 | 7.07 |
| CNC(=O)CCC(C)C1CC[C@H]2[C@@H]3[C@H](OC(C)=O)C[C@@H]4CC5(CC[C@]4(C)[C@H]3C[C@H](OC(C)=O)[C@]12C)OOC1(CCCCC1C)OO5 (stereo partly drawn) | 7.82 | 8.00 |  |  |
| CCC1CCC2(CC1)OOC1(CC[C@@]3(C)[C@H](C[C@@H](OC(C)=O)[C@@H]4[C@@H]3C[C@H](OC(C)=O)[C@]3(C)C(C(C)CCC(=O)NC)CC[C@@H]43)C1)OO2 (mixture of isomers; 25) |  |  | 8.21 | 7.55 |
| CCCNC(=O)CCC(C)C1CC[C@H]2[C@@H]3[C@H](OC(C)=O)C[C@@H]4CC5(CC[C@]4(C)[C@H]3C[C@H](OC(C)=O)[C@]12C)OOC1(CCC(CC)CC1)OO5 (mixture of isomers; 23) |  |  | 8.35 | 8.08 |
| CCNC(=O)CCC(C)C1CC[C@H]2[C@@H]3[C@H](OC(C)=O)C[C@@H]4CC5(CC[C@]4(C)[C@H]3C[C@H](OC(C)=O)[C@]12C)OOC1(CCCCC1C)OO5 (stereo partly drawn) | 7.90 | 8.16 |  |  |
| CCNC(=O)CCC(C)C1CC[C@H]2[C@@H]3[C@H](OC(C)=O)C[C@@H]4CC5(CC[C@]4(C)[C@H]3C[C@H](OC(C)=O)[C@]12C)OOC1(CCC(CC)CC1)OO5 (mixture of isomers; 22) | 7.70 | 8.02 |  |  |
| COC(=O)CCC(C)C1CC[C@H]2[C@@H]3[C@H](OC(C)=O)C[C@@H]4CC5(CC[C@]4(C)[C@H]3C[C@H](OC(C)=O)[C@]12C)OOC1(CCCC1)OO5 (stereo partly drawn) | 7.41 | 7.56 |  |  |
| CCCNC(=O)CCC(C)C1CC[C@H]2[C@@H]3[C@H](OC(C)=O)C[C@@H]4CC5(CC[C@]4(C)[C@H]3C[C@H](OC(C)=O)[C@]12C)OOC1(CCCCC1C)OO5 (stereo partly drawn) | 7.88 | 8.03 |  |  |
| COC(=O)CCC(C)C1CC[C@H]2[C@@H]3[C@H](OC(C)=O)C[C@@H]4CC5(CC[C@]4(C)[C@H]3C[C@H](OC(C)=O)[C@]12C)OOC1(OO5)C(C)CCCC1C (stereo partly drawn) | 7.51 | 6.45 |  |  |
| CC(=O)O[C@H]1C[C@H]2[C@@H]([C@H](OC(C)=O)C[C@@H]3CC4(CC[C@@]32C)OOC2(CCCCC2)OO4)[C@@H]2CCC(C(C)CCC(N)=O)[C@@]12C (stereo partly drawn) | 7.93 | 8.32 |  |  |
| CCNC(=O)CCC(C)C1CC[C@H]2[C@@H]3[C@H](OC(C)=O)C[C@@H]4CC5(CC[C@]4(C)[C@H]3C[C@H](OC(C)=O)[C@]12C)OOC1(CCC(CC)CC1)OO5 (mixture of isomers; 26) |  |  | 7.74 | 7.64 |
| CC(=O)O[C@H]1C[C@H]2[C@@H]([C@H](OC(C)=O)C[C@@H]3CC4(CC[C@@]32C)OOC2(CCC(C)CC2)OO4)[C@@H]2CCC(C(C)CCC(=O)O)[C@@]12C (stereo in doubt; 4h) |  |  | 7.75 | 7.51 |
| C[C@@H]1CC[C@H]2[C@@H](C)C(=O)O[C@@H]3O[C@@]4(C)CC[C@@H]1[C@]32OO4 [ARTEMISININ] | 8.08 | 8.14 |  |  |

| Compound | pIC50 (Plasmodium falciparum [1]) | pIC50 (Plasmodium falciparum [2]) | pIC50 (Plasmodium falciparum [3]) | pIC50 (Plasmodium falciparum [4]) |
| --- | --- | --- | --- | --- |
| COC(=O)CNC(=O)CCC(C)C1CC[C@H]2[C@@H]3[C@H](OC(C)=O)C[C@@H]4CC5(CC[C@]4(C)[C@H]3C[C@H](OC(C)=O)[C@]12C)OOC1(CCCCC1)OO5 (stereo partly drawn) | 7.66 | 7.97 |  |  |
| CCC1CCC2(CC1)OOC1(CC[C@@]3(C)[C@H](C[C@@H](OC(C)=O)[C@@H]4[C@@H]3C[C@H](OC(C)=O)[C@]3(C)C(C(C)CCC(N)=O)CC[C@@H]43)C1)OO2 (mixture of isomers; 24) |  | 7.90 |  | 7.51 |
| CCCNC(=O)CCC(C)C1CC[C@H]2[C@@H]3[C@H](OC(C)=O)C[C@@H]4CC5(CC[C@]4(C)[C@H]3C[C@H](OC(C)=O)[C@]12C)OOC1(CCC(CC)CC1)OO5 (mixture of isomers; 27) |  |  | 6.91 | 7.05 |
| CC(=O)O[C@H]1C[C@H]2[C@@H]([C@H](OC(C)=O)C[C@@H]3CC4(CC[C@@]32C)OOC2(CCCCC2)OO4)[C@@H]2CCC(C(C)CCC(=O)O)[C@@]12C (stereo partly drawn) | 7.93 | 7.72 |  |  |
| COC(=O)CCC(C)C1CC[C@H]2[C@@H]3[C@H](OC(C)=O)C[C@@H]4CC5(CC[C@]4(C)[C@H]3C[C@H](OC(C)=O)[C@]12C)OOC1(CCCCCCC1)OO5 (stereo partly drawn) | 7.31 | 7.70 |  |  |
| COC(=O)CCC(C)C1CC[C@H]2[C@@H]3[C@H](OC(C)=O)C[C@@H]4CC5(CC[C@]4(C)[C@H]3C[C@H](OC(C)=O)[C@]12C)OOC1(CCC(C(C)(C)C)CC1)OO5 (stereo in doubt; 3k) |  |  | 7.28 | 6.97 |
| CNC(=O)CCC(C)C1CC[C@H]2[C@@H]3[C@H](OC(C)=O)C[C@@H]4CC5(CC[C@]4(C)[C@H]3C[C@H](OC(C)=O)[C@]12C)OOC1(CCC(C)CC1)OO5 (stereo in doubt; 17) |  |  | 7.93 | 7.78 |
| COC(=O)CCC(C)C1CC[C@H]2[C@@H]3[C@H](OC(C)=O)C[C@@H]4CC5(CC[C@]4(C)[C@H]3C[C@H](OC(C)=O)[C@]12C)OOC1(CC(C)CCC1C(C)C)OO5 (stereo partly drawn) | 6.81 | 7.14 |  |  |
| COC(=O)CCC(C)C1CC[C@H]2[C@@H]3[C@H](OC(C)=O)C[C@@H]4CC5(CC[C@]4(C)[C@H]3C[C@H](OC(C)=O)[C@]12C)OOC1(CCC(C)CC1)OO5 (stereo in doubt; 3h) |  |  | 7.88 | 7.61 |
| CCC1CCC2(CC1)OOC1(CC[C@@]3(C)[C@H](C[C@@H](OC(C)=O)[C@@H]4[C@@H]3C[C@H](OC(C)=O)[C@]3(C)C(C(C)CCC(=O)OC)CC[C@@H]43)C1)OO2 (single isomer, unassigned; 3i) |  |  | 7.81 | 8.17 |
| COC(=O)CCC(C)C1CC[C@H]2[C@@H]3[C@H](OC(C)=O)C[C@@H]4CC5(CC[C@]4(C)[C@H]3C[C@H](OC(C)=O)[C@]12C)OOC1(CCCCC1)OO5 (stereo partly drawn) | 7.67 | 7.77 |  |  |
| CCC1CCC2(CC1)OOC1(CC[C@@]3(C)[C@H](C[C@@H](OC(C)=O)[C@@H]4[C@@H]3C[C@H](OC(C)=O)[C@]3(C)C(C(C)CCC(=O)OC)CC[C@@H]43)C1)OO2 (single isomer, unassigned; 3j) |  | 7.55 |  | 7.75 |
| CCNC(=O)CCC(C)C1CC[C@H]2[C@@H]3[C@H](OC(C)=O)C[C@@H]4CC5(CC[C@]4(C)[C@H]3C[C@H](OC(C)=O)[C@]12C)OOC1(CCC(C)CC1)OO5 (stereo in doubt; 18) |  |  | 8.00 | 7.81 |
| CCC1CCC2(CC1)OOC1(CC[C@@]3(C)[C@H](C[C@@H](OC(C)=O)[C@@H]4[C@@H]3C[C@H](OC(C)=O)[C@]3(C)C(C(C)CCC(=O)O)CC[C@@H]43)C1)OO2 (stereo in doubt; 4j) |  |  | 7.84 | 8.01 |
| CCC1CCC2(CC1)OOC1(CC[C@@]3(C)[C@H](C[C@@H](OC(C)=O)[C@@H]4[C@@H]3C[C@H](OC(C)=O)[C@]3(C)C(C(C)CCC(=O)NC)CC[C@@H]43)C1)OO2 (mixture of isomers; 21) |  | 8.11 |  | 8.14 |
| COC(=O)CCC(C)C1CC[C@H]2[C@@H]3[C@H](OC(C)=O)C[C@@H]4CC5(CC[C@]4(C)[C@H]3C[C@H](OC(C)=O)[C@]12C)OOC1(CCC(C(C)(C)C)CC1)OO5 (stereo in doubt; 3l) |  | 7.56 |  | 7.29 |
| CCCNC(=O)CCC(C)C1CC[C@H]2[C@@H]3[C@H](OC(C)=O)C[C@@H]4CC5(CC[C@]4(C)[C@H]3C[C@H](OC(C)=O)[C@]12C)OOC1(CCCCC1)OO5 (stereo partly drawn) | 7.83 | 8.17 |  |  |
| CCC1CCC2(CC1)OOC1(CC[C@@]3(C)[C@H](C[C@@H](OC(C)=O)[C@@H]4[C@@H]3C[C@H](OC(C)=O)[C@]3(C)C(C(C)CCC(N)=O)CC[C@@H]43)C1)OO2 (mixture of isomers; 20) |  |  | 7.97 | 8.08 |
